Article PMC9814779, “A triple farnesoid X receptor and peroxisome proliferator-activated receptor α/δ activator reverses hepatic fibrosis in diet-induced NASH in mice” (Communications Chemistry, 2020)

Legend:
[1] = test system: diet-induced mouse model of NASH; settings: cited from earlier work
[2] = test system: nuclear receptors related to PPARs and FXR (LXRα/β, RXRα/β/γ, RARα/β/γ, VDR, CAR); test: Selectivity screening among nuclear receptors (Gal4 hybrid reporter gene assays); type: cell-based, human; settings: three independent experiments
From the text: (§1) For the hybrid reporter gene assays, the previously reported Gal4-fusion receptor plasmids pFA-CMV-hPPARα-LBD[29], pFA-CMV-hPPARδ-LBD[29], pFA-CMV-hPPARγ-LBD[29], pFA-CMV-hLXRα-LBD[30], pFA-CMV-hLXRβ-LBD[30], pFA-CMV-hRXRα-LBD[31], pFA-CMV-hRXRβ-LBD[31], pFA-CMV-hRXRγ-LBD[31], pFA-CMV-hRARα-LBD[31], pFA-CMV-hRARβ-LBD[31], pFA-CMV-hRARγ-LBD[31], pFA-CMV-hVDR-LBD[31], and pFA-CMV-hCAR-LBD[31] coding for the hinge region and LBD of the canonical isoform of the respective nuclear receptor were used. pFR-Luc (Stratagene) was used as reporter plasmid for Gal4 hybrid reporter gene assays. pcDNA3-hFXR[32] and pSG5-hRXR[33] served for receptor overexpression in the full-length FXR assay and pGL3basic (Promega Corporation, Fitchburg, WI, USA) with a shortened construct of the BSEP promoter cloned into the SacI/NheI cleavage site in front of the luciferase gene[34] was used as reporter. PPRE-pGL3[35] contains the human full-length PPRE (cloned into the SacI/NheI cleavage site in front of the luciferase gene) and was used as reporter plasmid for the full-length PPRE reporter gene assay. pRL-SV40 (Promega) was used in all assays for normalization of transfection efficiency and cell growth.
(§2) Before transfection, medium was changed to Opti-MEM without supplements. […] Luminescence was measured with a Spark 10 M luminometer (Tecan Deutschland GmbH). […]

[3] = molecular target: T1, human PPARα ligand-binding domain (Gal4 chimera) (Homo sapiens, UniProt Q07869); test: Gal4 hybrid reporter gene assay, PPARα; type: cell-based; set-up: Emax: dose or concentration left out as unconfirmed
T1 construct: coding for the hinge region and LBD of the canonical isoform of the respective nuclear receptor; expressed in transfected cells; host or cells: HEK293T
T1 sequence (Q07869 239-466 limits assumed): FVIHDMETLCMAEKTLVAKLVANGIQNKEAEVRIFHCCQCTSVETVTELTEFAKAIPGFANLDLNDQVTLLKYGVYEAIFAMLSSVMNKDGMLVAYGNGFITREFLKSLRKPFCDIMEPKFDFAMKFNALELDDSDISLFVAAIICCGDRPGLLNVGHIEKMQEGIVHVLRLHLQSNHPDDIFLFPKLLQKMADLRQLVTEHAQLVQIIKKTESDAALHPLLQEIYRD

[4] = test system: human full-length PPAR response element (PPRE) reporter; test: Full-length PPAR response element (PPRE) reporter gene assay in HEK293T cells; type: cell-based; settings: HEK-293T, mean ± SEM, n = 3
From the text: as §1, §2

Structure (SMILES) | anti-steatotic effect ([1]; OCA 30 mg/kg, OCA/elafibranor 30 mg/kg + 10 mg/kg, elafibranor 10 mg/kg) | anti-fibrotic activity ([1]; equivalent, previously reported study) | selectivity among nuclear receptors related to PPARs and FXR [2] | EC50 ([3]; EC50 [μM] PPARα, HEK293T, mean ± SEM, n = 3) | EC50 ([3]; PPARα EC50, as stated in text) | Emax ([3]; read-out: max. rel. act. PPARα) | EC50 [4]
CC[C@H]1[C@@H](O)[C@@H]2[C@H](CC[C@]3(C)[C@@H]([C@H](C)CCC(=O)O)CC[C@@H]23)[C@@]2(C)CC[C@@H](O)C[C@@H]12 [OCA, 6α-ethylchenodeoxycholic acid, reference compound] | marked reductions in steatosis | only weak anti-fibrotic activity compared to vehicle |  |  |  |  | 
CC(C)(C)c1ccc(C(=O)Nc2cccc(CCC(=O)O)c2)c(NC(=O)c2ccc(-c3ccco3)cc2)c1 [compound 41, 3-(3-[4-{tert-Butyl}-2-{4-(2-furyl)}benzamido]phenyl)propanoic acid] |  |  | no off-target liability | 0.17 ± 0.04 µM | 0.168 µM | 72% | 170 nM
